The target of one assay is 5-HT1 receptor. Put plainly: Affinity to the 5-HT1 receptor (receptor binding, calf hippocampus membrane preparations, 3H-serotonin). To be noted: calf hippocampus membranes, 3H-serotonin radioligand. On the procedure:
A.) Affinity to the 5-HT1 Receptor […] The values specified are data which were determined from receptor binding studies using calf hippocampus membrane preparations. 3H-serotonin was used for this purpose as radioactively labelled ligand.

In assay [1] the test system is contraction, caused by serotonin, of the arteria basilaris. Put plainly: Serotonin-agonistic/antagonistic action on the contraction, caused by serotonin, of the arteria basilaris of the dog. Format: cell-based. As to conditions: for Effect antagonistic: suppression of serotonin-induced contraction after pre-treatment; for Effect agonistic: serotonin-mimetic contraction. The text has this:
B.) Investigation of the serotonin-agonistic/antagonistic action
To this purpose, the action on the contraction, caused by serotonin, of the arteria basilaris of the dog is investigated [cf. Peroutka et al., Brain Research 259, 327 (1983)].
In this test model, an agonistic action can be detected by the serotonin-mimetic action (contraction).

pKi: −log10 of the molar value. Counter-ions that a name gives are not always drawn.

One may read the pKi as −log10 of the Ki, conventionally taken in molar units. A lower pKi goes with a large Ki. For the compound `CCCN(CC#N)C1CCc2cccc(OC)c2C1` (stereo not drawn) [Example 26, 2-(N-Cyanomethyl-N-propyl)amino-8-methoxy-1,2,3,4-tetrahydronaphthalene hydrochloride], on 5-HT1 receptor, the pKi is 8.70. Same read-out and setting: as for `CCCN(CCN(CC)CC)C1CCc2cccc(OC)c2C1` (stereo not drawn) [Example 20, 2-[N-(2-Diethylaminoethyl)-N-propyl]amino-8-methoxy-1,2,3,4-tetrahydronaphthalene dihydrochloride], the figure is 7.96. The compound `CCCN(CCNC(=O)OCC)C1CCc2cccc(OC)c2C1` (stereo not drawn) [Example 22, 2-[N-(2-Ethoxycarbonylamido-ethyl)-N-propyl]amino-8-methoxy-1,2,3,4-tetrahydronaphthalene hydrochloride] showed a pKi on 5-HT1 receptor of 8.52. Moreover, the Effect antagonistic in assay [1] amounted to 0. Take `CCCN(CCN1CCCCS1(=O)=O)C1CCc2cccc(OC)c2C1` (stereo not drawn) [Example 58, 2-[2-N-Propyl-N-(8-methoxy-1,2,3,4-tetrahydro-2-naphthyl)-amino]ethyl-perhydro-1,2-thiazine 1,1-dioxide hydrochloride]: on 5-HT1 receptor, the pKi was 8.40. Same read-out and setting: in the case of `CCCN(CCCNC(=O)c1cccnc1)C1CCc2cccc(OC)c2C1` (stereo not drawn) [Example 62, dihydrochloride] it was 8.40. `CCCN(CCNS(=O)(=O)c1ccc(C)cc1)C1CCc2cccc(OC)c2C1` (stereo not drawn) [Example 45, 8-Methoxy-2-{N-[2-(4-toluene-sulphonamido)ethyl]-N-propyl}amino-1,2,3,4-tetrahydronaphthalene hydrochloride] had a pKi at 5-HT1 receptor of 9.00. The Effect agonistic in assay [1] is 0. In turn, `CCCN(CCO)C1CCc2cccc(OC)c2C1` (stereo not drawn) [Example 42, 2-[N-(2-Hydroxyethyl)-N-propyl]amino-8-methoxy-1,2,3,4-tetrahydronaphthalene] showed a negative logarithm of the Ki (pKi) on 5-HT1 receptor of 8.40.

Take `CCCN(CCCCN1C(=O)c2ccccc2S1(=O)=O)C1CCc2cccc(OC)c2C1.Cl` (stereo not drawn) [Example 34, 2-{4-[N-(8-Methoxy-1,2,3,4-tetrahydro-2-naphthyl)-N-propyl-amino]butyl}-1,2-benzisothiazol-3(2H)-one 1,1-dioxide hydrochloride]: the negative-log Ki (pKi) at 5-HT1 receptor was 9.00. The same compound registered an Effect agonistic in assay [1] of 0. In the case of `CCCN(CCC)C1CCc2cccc(O)c2C1` (stereo not drawn) [R^1 = H, R^2 = nC3 H7, R^3 = nC3 H7, reference compound], the Effect antagonistic in assay [1] was 0.

These data come from patent US5298513A, “Substituted basic 2-aminotetralin in pharmaceuticals” (Bayer Aktiengesellschaft, priority 1986, dated 1994).
